Measured values: patent publication US20220194951A1, “DIHYDROPYRIMIDINE COMPOUND AND APPLICATION THEREOF AS DRUG” (SUNSHINE LAKE PHARMA CO., LTD., priority 2019, published 2022)
Values belong to the compound of their own block, whether it stands above or below them.

Tests used:
[1] = PK test on cynomolgus monkeys; format: in vivo; details: male, cynomolgus monkey, plasma; for bioavailability: read-out: F (absolute bioavailability)
Description: (4) PK Test on Cynomolgus Monkeys:
The PK test method of the compound in vivo of cynomolgus monkeys (purchased from Guangdong Chunsheng Biotechnology Development Co., Ltd., weight 3-6 kg, male, ages of 4-6 years, 3 per oral group, 3 per intravenous injection group):
The cynomolgus monkeys were administered intragastrically with the test compound at doses of 2.5 mg/kg or 5 mg/kg or administered intravenously with the test compound at doses of 0.5 mg/kg or 1 mg/kg.
Blood samples were taken at 0.083, 0.25, 0.5, 1, 2, 4, 6, 8 and 24 hours from vein after the administration, and collected in anticoagulation tube with EDTA-K2. After liquid-liquid extraction, the plasma sample was quantitatively analyzed on a triple quadrupole tandem mass spectrometer using multiple reactive ion monitoring (MRM). Pharmacokinetic parameters were calculated using a noncompartmental method by WinNonLin 6.3 software.

[2] = system: HBV; assay: Inhibition of HBV DNA replication in HepAD38 cells (qPCR method); format: cell-based; details: Hepatitis B virus, secreted virus DNA by qPCR
Text: Test 1: Evaluation of HepAD38 Cells on the Compound's Inhibitory Activity of HBV DNA Replication (qPCR Method)
HBV Cell Strain and Culture Conditions
HepAD38: Ladner et al. (Ladner, Otto et al. 1997) ligated the tetracycline-sensitive cytomegalovirus CMV promoter to the PBR322 plasmid and ligated it with the ayw subtype HBV DNA into the ptetHBV plasmid, and HepG2 cells were transfected to obtain the HepAD38 cell strain. Due to the destruction of the pre-C region gene, the yield of HBV DNA was about 11 times higher than that of HepG2.2.15 cells. Tetracycline could be used to regulate HBV replication, and the time required for culture was only half of that of HepG2.2.15 cells. It was suitable for studying the HBV replication process and replication intermediates and screening of anti-HBV drugs. HepAD38 was cultured in DMEM/F-12K medium containing 10% FBS and 1% double antibody (it also contained Tetracycline at a final concentration of 300 ng/ml and G418 at a final concentration of 400 μg/ml).
The virus particle DNA secreted by HepAD38 cells could be quantified by qPCR method, and thus the influence of the compound on virus replication could be detected.
(§1) Test of Anti HBV Activity In Vitro
After resuscitating the HepAD38 with a small number of passages, after the cells were in good condition, Tetracycline (final concentration of 300 ng/ml) and G418 (final concentration of 400 μg/ml) were added into the medium. […] After the cells were full, they were digested, counted, and diluted with DMEM/F-12K medium containing 10% FBS (containing Tetracycline at a final concentration of 300 ng/ml and G418 at a final concentration of 400 μg/ml, 1% double antibody) to a cell suspension of concentration of 2×10^5/mL. The cell suspension was seeded in a 96-well plate (the whole plate was covered) at 100 μL per well, and incubated at 37° C. in a constant temperature incubator with 5% CO2 for 24 h.
Compound preparation and cell treatment in antiviral experiments: the compound was dissolved with DMSO to 20 mM. Furthermore, the compound was diluted with DMSO to 800 μM, and then 8 dilutions at 4 fold were performed, the highest concentration was 800 μM. 1 μL of serially diluted compound was added to each well of the above-mentioned cell plate. The highest final concentration of the experiment was 4 μM (200 fold dilution). TDF (tenofovir disoproxil fumarate, Selleck, Cat S1400) was used as a positive control compound with a highest concentration of 4 μM. 1 μL of DMSO was added to the negative control wells to a final concentration of 0.5%.
The one-step hepatitis B virus nucleic acid quantitative determination kit for 48 people (PCR-fluorescent probe method) of Shengxiang Biotechnology was used for QPCR. 2.5 μL of supernatant was absorbed for Q-PCR, and the kit reagents were vortexed and mixed well after the reagents were melted before use. After centrifugation, the enzyme mixture was placed on ice for later use, and it was ensured that the subsequent steps were completed on the ice. 2.5 μL of sample release agent and 2.5 μL of test sample supernatant (experimental group, control group, standard curve group) were added to each well of the Q-PCR plate. After QPCR reaction, the copy number of virus DNA in each well was obtained. Graphpad Prism 5 software was used to process the concentration-virus copy number, and the EC50 of the compound against virus replication was calculated through a four-parameter nonlinear regression model.

[3] = system: HBV; assay: Inhibition of HBV DNA replication in HepG2.2.15 cells (qPCR); format: cell-based; details: Hepatitis B virus, secreted virus DNA by qPCR
Description: Test 2: Evaluation of HepG2.2.15 Cells on the Compound's Inhibitory Activity of HBV DNA Replication
HBV Cell Line and Culture Conditions
The chromosomes of HepG2.2.15 cells (SELLS, PNAS, 1987 and SELLS, JV, 1988) integrated a complete HBV genome and stably expressed viral RNA and viral proteins. HepG2.2.15 cells could secrete mature hepatitis B virus particles, HBsAg and HBeAg into the culture medium. HepG2.2.15 cells were cultured in a DMEM medium containing 10% fetal bovine serum, 100 U/mL penicillin, 100 U/mL streptomycin, 1% non-essential amino acids, 1 mM sodium pyruvate and 300 µg/mL G418.
The virus particle DNA secreted by HepG2.2.15 cells could be quantified by qPCR method, and the influence of the compound on virus replication could be detected.
as §1
8,000 HepG 2.2.15 cells per well were seeded into a 96-well cell culture plate, the plate was cultured at 37° C. and 5% CO2 for 3 days until the cells grew to full wells. Old liquid medium was discard and replaced with 200 μL of new medium (5% FBS) on day 0. […]
Primers: HBV-For-202, […]; HBV-Rev-315, […]. […] Graphpad Prism 5 software was used to process the concentration-virus copy number, and the EC50 of the compound against virus replication was calculated through a four-parameter nonlinear regression model.

- AUC(0-t) ([1]; iv, 0.5 mg/kg): 720 ng·h/mL
- Tmax ([1]; iv, 0.5 mg/kg): 4.98 min
- AUC(0-t) ([1]; po, 2.5 mg/kg): 647 ng·h/mL
- Tmax ([1]; po, 2.5 mg/kg): 90 min
- bioavailability ([1]; po, 2.5 mg/kg): 23.6%
Compound: COC(=O)C1=C(CN2CCN3C(=O)N(c4ccc(C(=O)O)cc4)C[C@@H]3C2)NC(c2nccs2)=N[C@H]1c1ccc(F)cc1Cl [Control compound, 4-((S)-7-(((R)-6-(2-chloro-4-fluorophenyl)-5-(methoxycarbonyl)-2-(thiazol-2-yl)-3,6-dihydropyrimidin-4-yl)methyl)-3-oxohexahydroimidazo[1,5-a]pyrazine-2(3H)-yl)benzoic acid, reference compound]

Compound: COC(=O)C1=C(CN2CCN3C(=O)N(c4ccc(C(=O)O)cc4F)C[C@@H]3C2)NC(c2nccs2)=N[C@H]1c1ccc(F)cc1Cl [Example 1]
- EC50 [2]: 20 nM

Compound: COC(=O)C1=C(CN2CCN3C(=O)N(c4ccc(C(=O)O)c(F)c4)C[C@@H]3C2)NC(c2nccs2)=N[C@H]1c1ccc(F)cc1Cl [Example 2]
- EC50 [2]: 10 nM
- EC50 [3]: 4 nM
- AUC(0-t) ([1]; iv, 0.5 mg/kg): 1020 ng·h/mL
- Tmax ([1]; iv, 0.5 mg/kg): 4.98 min
- AUC(0-t) ([1]; po, 2.5 mg/kg): 3380 ng·h/mL
- Tmax ([1]; po, 2.5 mg/kg): 30 min
- bioavailability ([1]; po, 2.5 mg/kg): 64.8%

Compound: CCOC(=O)C1=C(CN2CCN3C(=O)N(c4ccc(C(=O)O)cc4F)C[C@@H]3C2)NC(c2nccs2)=N[C@H]1c1ccc(F)cc1Br [Example 3]
- EC50 [2]: 31 nM

Compound: CCOC(=O)C1=C(CN2CCN3C(=O)N(c4ccc(C(=O)O)c(F)c4)C[C@@H]3C2)NC(c2nccs2)=N[C@H]1c1ccc(F)cc1Br [Example 4]
- EC50 [2]: 16 nM

Compound: CCOC(=O)C1=C(CN2CCN3C(=O)N(c4ccc(C(=O)O)c(F)c4)C[C@@H]3C2)NC(c2nccs2)=N[C@H]1c1ccc(F)cc1Cl [Example 6]
- EC50 [2]: 15 nM

Compound: CCOC(=O)C1=C(CN2CCN3C(=O)N(c4ccc(C(=O)O)cc4F)C[C@@H]3C2)NC(c2nccs2)=N[C@H]1c1ccc(Cl)cc1Cl [Example 7]
- EC50 [2]: 16 nM

Compound: CCOC(=O)C1=C(CN2CCN3C(=O)N(c4ccc(C(=O)O)c(F)c4)C[C@@H]3C2)NC(c2nccs2)=N[C@H]1c1ccc(Cl)cc1Cl [Example 8]
- EC50 [2]: 13 nM
